A short description of series [1]: pKa by titration against aqueous NaOH (half neutralization point), buffer range. It counts as physicochemical. To be noted: for pKa: dimethylsulfoxide/water, 0.09995N NaOH, half neutralization point; for Buffer Range: range 1 acid:10 salt to 10 acid:1 salt. How it is done: The selected acids listed in Table IX (65-84 mg samples, weighed accurately) were respectively dissolved in a mixture of dimethylsulfoxide (25 ml) and water (10-25 ml) and titrated against 0.09995N aqueous sodium hydroxide using an automatic titrimeter (Metrohm Potentiograph Model E 336). According to the general theory of buffer solutions (A. I. Vogel, "A Textbook of Quantitative Inorganic Analysis, Theory and Practice," Longmans, Green, London (1948)), the following relationship exists in a dilute solution (0.05-0.2M) of a weak acid to which small additions of acid or base are made
pH = pKa + log [Salt]/[Acid]
The pH of the solution is mainly determined by the pKa of the acid, and in general the buffering capacity (ability to withstand pH change upon addition of acid or base) is maintained within the range 1 acid:10 salt to 10 acid:1 salt, a hundred-fold variation of concentration, or a change of two pH units. The buffer ranges of each of the acids is shown in the third column of Table IX. The acids are useful as buffers in weakly acidic solutions.

Series [2] deals with sorghum. Nature of the series: postemergence plant growth test. To be noted: 2k/ha. It counts as in vivo. An excerpt: (§1) The imidazole and triazole compounds of the invention are useful as plant growth modifiers when applied to plants. The compounds are applied to the immediate area where the plant is developing and growing, including preemergence and postemergence application.

The subject of series [3] is rice. The series can be described thus: postemergence plant growth test. Type of series: in vivo. The settings on record: 2k/ha.
From the text: as §1

Series [4] deals with cocklebur. The series can be described thus: postemergence plant growth test. Type of series: in vivo. To be noted: 2k/ha.
From the text: as §1

Series [5] concerns cassia. The series can be described thus: postemergence plant growth test. Type of series: in vivo. The settings on record: 2k/ha.
From the text: as §1

The next series concerns bush beans. The series can be described thus: postemergence plant growth test. Type of series: in vivo. The settings on record: 2k/ha.
From the text: as §1

Series [6] has as its system nutsedge. The series can be described thus: postemergence plant growth test. Type of series: in vivo. To be noted: 2k/ha.
From the text: as §1

For series [7], the system named is morning glory. The series can be described thus: postemergence plant growth test. It counts as in vivo. The settings on record: 2k/ha.
From the text: as §1

Series [8] has as its system sorghum. The series can be described thus: preemergence plant growth test. It counts as in vivo. The settings on record: 2k/ha.
From the text: as §1

Series [9] deals with rice. The series can be described thus: preemergence plant growth test. It counts as in vivo. To be noted: 2k/ha.
From the text: as §1

Series [10] relates to cocklebur. The series can be described thus: preemergence plant growth test. The settings on record: 2k/ha. Type of series: in vivo.
From the text: as §1

In series [11] the test system is cassia. Nature of the series: preemergence plant growth test. It counts as in vivo. To be noted: 2k/ha.
From the text: as §1

Series [12] has as its system nutsedge. Nature of the series: preemergence plant growth test. The settings on record: 2k/ha. Type of series: in vivo.
From the text: as §1

Series [13] concerns morning glory. The series can be described thus: preemergence plant growth test. Type of series: in vivo. The settings on record: 2k/ha.
From the text: as §1

Series [14] concerns wild oats. The series can be described thus: postemergence plant growth test. It counts as in vivo. To be noted: 2k/ha.
From the text: as §1

In series [15] the test system is wheat. Nature of the series: postemergence plant growth test. Type of series: in vivo. The settings on record: 2k/ha.
From the text: as §1

In series [16] the test system is soybeans. The series can be described thus: postemergence plant growth test. It counts as in vivo. The settings on record: 2k/ha.
From the text: as §1

The next series deals with barnyard grass. Nature of the series: postemergence plant growth test. To be noted: 2k/ha. It counts as in vivo.
From the text: as §1

Series [17] relates to wild oats. Nature of the series: preemergence plant growth test. Type of series: in vivo. The settings on record: 2k/ha.
From the text: as §1

The test system of series [18] is corn. The series can be described thus: preemergence plant growth test. It counts as in vivo. To be noted: 2k/ha.
From the text: as §1

In series [19] the test system is wheat. Nature of the series: preemergence plant growth test. The settings on record: 2k/ha. Type of series: in vivo.
From the text: as §1

Series [20] has as its system corn. The series can be described thus: postemergence plant growth test. Type of series: in vivo. To be noted: 2k/ha.
From the text: as §1

The next series has as its system cotton. Nature of the series: postemergence plant growth test. To be noted: 2k/ha. Type of series: in vivo.
From the text: as §1

For a further series, the system named is crabgrass. The series can be described thus: preemergence plant growth test. It counts as in vivo. To be noted: 2k/ha.
From the text: as §1

Series [21] deals with soybeans. The series can be described thus: preemergence plant growth test. It counts as in vivo. The settings on record: 2k/ha, soybeans.
From the text: as §1

As a reminder, the pKa is the pH at which an ionisable group is half protonated. Read a high pKa as a weaker acid or stronger base.

The molecule `Cc1ccc(-c2ncn(-c3ccccc3C(=O)O)n2)cc1` [Example 9, 1-(2-carboxyphenyl)-3-(4-methylphenyl)-1,2,4-triazole] showed a pKa in [1] of 4.81. In addition, the “Buffer Range” value in [1] was 3.8 - 5.8 pH Units. For the same molecule, the epinastic response result in the series with sorghum [2], with rice [3], with cocklebur [4], in the series with cassia [5], with nutsedge [6] and with morning glory [7] was “epinastic response” throughout. The epinastic response result in the series on sorghum [8], with rice [9], with cocklebur [10], in the series with cassia [11], with nutsedge [12] and in the series on morning glory [13] was “epinastic response” each time. Also, the growth entry in the series with bush beans is reported as “retarded”.

The molecule `O=C(O)c1ccccc1-n1cnc(-c2ccccc2)n1` [Example 5, 1-(2-carboxyphenyl)-3-phenyl-1,2,4-triazole] gave a pKa in [1] of 5.91. The “Buffer Range” value in [1] is 4.9 - 6.9 pH Units. For the same molecule, the growth result in the series on wild oats [14], in the series on wheat [15] and in the series with barnyard grass was “retarded” each time. The epinastic response result with sorghum [2], with rice [3], with soybeans [16] and with nutsedge [6] was “epinastic response” in each case.

As for `O=C(O)c1ccccc1-n1cnc(-c2ccc(Cl)cc2)n1` [Example 6, 1-(2-carboxyphenyl)-3-(4-chlorophenyl)-1,2,4-triazole], the pKa in series [1] is given as 5.48. The “Buffer Range” value in series [1] is listed as 4.5 - 6.5 pH Units. For the same molecule, the epinastic response entry in the series on wild oats [17], with sorghum [8], with corn [18], in the series on wheat [19], in the series with rice [9] and in the series with cassia [11] was “epinastic responses” throughout. In addition, the epinastic response result in the series with nutsedge [12] is on record as “epinastic responses”.

For the molecule `Cc1ccc(-c2cn(-c3ccccc3C(=O)O)cn2)cc1` [Example 4, 1-(2-carboxyphenyl)-4-(4-methylphenyl)imidazole], the pKa in series [1] is 5.59. Also, the “Buffer Range” value in series [1] is recorded as 4.6 - 6.6 pH Units. Further, the epinastic response result in the series on sorghum [2] was “epinastic response”; in the series with corn [20], “epinastic response”; with cotton it was “epinastic response”; in the series on bush beans it was “epinastic response”; in the series with morning glory [7] it was “epinastic response”; in the series with wild oats [17] it was “moderate to strong response”. The epinastic response entry in the series on sorghum [8] is given as “moderate to strong response”; with corn [18] it was “very strong epinastic responses”; with wheat [19], “moderate to strong response”; in the series on rice [9] it was “very strong epinastic responses”; in the series with crabgrass it was “very strong epinastic responses”; in the series on soybeans [21], “very strong epinastic responses”. Also, in the series on soybeans [16], the axillary stimulation result is “strong axillary stimulation”.

Molecule `COc1ccc(-c2cn(-c3ccccc3C(=O)O)cn2)cc1` [Example 3, 1-(2-carboxyphenyl)-4-(4-methoxyphenyl)imidazole] yielded a pKa in series [1] of 5.08. Moreover, the “Buffer Range” value in series [1] is listed as 4.1 - 6.1 pH Units. Moreover, the epinastic response entry in the series on sorghum [2], with corn [20], in the series on rice [3], with cotton, in the series on soybeans [16] and in the series on cocklebur [4] was “epinastic response” in each case. In addition, the epinastic response result in the series with cassia [5] and in the series with bush beans was “epinastic response” in each case. Moreover, the axillary stimulation entry in the series on soybeans [16], with barnyard grass and with cassia [5] was “axillary stimulation” in each case.

In series [1], `O=C(O)c1ccccc1-n1cnc(-c2ccc(Cl)c(Cl)c2)n1` [Example 7, 1-(2-carboxyphenyl)-3-(3,4-dichlorophenyl)-,2,4-triazole] displayed a pKa of 6.19. For the same molecule, in series [1], the “Buffer Range” value was 5.2 - 7.2 pH Units. In addition, the epinastic response result with wild oats [17], in the series on sorghum [8], in the series with corn [18], with wheat [19], with rice [9] and with cassia [11] was “epinastic responses” each time. Moreover, in the series on nutsedge [12], the epinastic response entry is listed as “epinastic responses”.

In series [1], `COc1ccc(-c2ncn(-c3ccccc3C(=O)O)n2)cc1` [Example 8, 1-(2-carboxyphenyl)-3-(4-methoxyphenyl)-1,2,4-triazole] registered a pKa of 4.73. Also, the “Buffer Range” value in series [1] is 3.7 - 5.7 pH Units. Further, the epinastic response result in the series on wild oats [17], in the series on sorghum [8], in the series with corn [18], in the series on wheat [19], in the series with rice [9] and with cassia [11] was “epinastic responses” in each case. Also, in the series on nutsedge [12], the epinastic response entry was “epinastic responses”.

Consider `O=C(O)c1ccccc1-n1cnc(-c2ccc(Cl)cc2)c1` [Example 2, 1-(2-carboxyphenyl)-4-(4-chlorophenyl)imidazole], for which the epinastic response entry was “epinastic response” with sorghum [2]; “epinastic response” in the series on corn [20]; “epinastic response” in the series on cotton; “epinastic response” in the series with bush beans; “epinastic response” in the series with morning glory [7]; “very strong response” with wild oats [17]. Further, the epinastic response result is on record as “very strong response” in the series with sorghum [8]; “very strong epinastic responses” in the series with corn [18]; “very strong response” with wheat [19]; “very strong epinastic responses” with rice [9]; “very strong epinastic responses” in the series on crabgrass; “very strong epinastic responses” in the series with soybeans [21]. Further, the axillary stimulation result in the series on soybeans [16] is “strong axillary stimulation”.
